Square brackets hold non-standard residues; d marks the D form. Peptide text beside a SMILES is read from it. Bip = N[C@@H](Cc1ccc(-c2ccccc2)cc1)C(=O)O

The subject of assay [1] is hyperactive human GLP-1 receptor variant. In words: Peptide induced cAMP production (radioimmunoassay) in COS-7 cells transfected with hyperactive GLP-1 receptor variant. It counts as cell-based. The note with it: for EC50: COS-7 cells, hyperactive human GLP-1 receptor variant. The source says: The same peptides were used as described above, with the underivatized GLP-1 (7-20) amide represented in FIG. 1B with closed squares (“−bpa”) and the GLP-1 (7-20) carboxy-terminal tethered with a small molecule, biphenylalanine, represented by open squares (“+bpa”).

For assay [2], the system named is Zucker diabetic fatty (ZDF) rats. In words: Preclinical trial protocol in Zucker diabetic fatty (ZDF) rats: blood glucose and islet cell mass. It counts as in vivo, rat. The settings on record: versus saline; for blood glucose levels: 1 μg/kg/day to 100 mg/kg/day; for islet cell mass in pancreases: histology. The method, then: In this example, qualified animal models for diabetes are employed to examine the dose ranges of GLP-1 (7-20).
Treatment with GLP-1 (7-20) Animal Model. Zucker diabetic fatty (ZDF) rats are a well characterized type 2 diabetes animal model. (Suh Y H, et al. J Mol. Endocrinol. 2005 April; 34(2):299-315.)
Doses of GLP-1 (7-20) range from 1 μg/kg/day to 100 mg/kg/day.
Treatment. Cohorts are treated in 2 arms with 2-4 dose ranges of GLP-1 (7-20) amide and a placebo, at a compensated dose for animal size, metabolism and circulation. Arm 1: saline, Arm 2: GLP-1 (7-20) amide.
Study Assessment. Blood glucose levels are measured every week with a One Touch II glucose meter (Lifescan). Blood insulin levels are also measured. Rats are considered diabetic after 2 consecutive blood glucose measurements over 300 mg/dl. For histological analysis, pancreases are snap-frozen. Multiple 5-μm sections are stained with hematoxylin and eosin and scored blindly for islet cell mass as known in the art. […]
Animal Model. Zucker diabetic fatty (ZDF) rats are a well characterized type 2 diabetes animal model. (Suh Y H, et al. J Mol Endocrinol. 2005 April; 34(2):299-315.) […]
Treatment. Cohorts are treated in 6 arms with 2-4 dose ranges of each drug and a placebo, at a compensated dose for animal size, metabolism and circulation. Arm 1: saline, Arm 2: GLP-1 (7-20)−bpa; Arm 3: GLP-1 (7-20)+bpa; Arm 4: GLP-1 (7-20)−bpa plus pravastatin; Arm 5: GLP-1 (7-20)+bpa plus pravastatin; Arm 6: GLP-1 (7-20)−bpa plus GLP-1 (7-20)+bpa plus pravastatin.
Study Assessment. Blood glucose levels are measured every week with a One Touch II glucose meter (Lifescan). Blood insulin levels are also measured. Rats are considered diabetic after 2 consecutive measurements over 300 mg/dl. For histological analysis, pancreases are snap-frozen. Multiple 5-μm sections are stained with hematoxylin and eosin and scored blindly for islet cell mass as known in the art.

Assay [3] deals with wild-type human GLP-1 receptor (Homo sapiens, UniProt P43220). In words: Peptide induced cAMP production (radioimmunoassay) in COS-7 cells transfected with wild-type GLP-1 receptor.
wild-type human GLP-1 receptor, sequence (P43220 24-463): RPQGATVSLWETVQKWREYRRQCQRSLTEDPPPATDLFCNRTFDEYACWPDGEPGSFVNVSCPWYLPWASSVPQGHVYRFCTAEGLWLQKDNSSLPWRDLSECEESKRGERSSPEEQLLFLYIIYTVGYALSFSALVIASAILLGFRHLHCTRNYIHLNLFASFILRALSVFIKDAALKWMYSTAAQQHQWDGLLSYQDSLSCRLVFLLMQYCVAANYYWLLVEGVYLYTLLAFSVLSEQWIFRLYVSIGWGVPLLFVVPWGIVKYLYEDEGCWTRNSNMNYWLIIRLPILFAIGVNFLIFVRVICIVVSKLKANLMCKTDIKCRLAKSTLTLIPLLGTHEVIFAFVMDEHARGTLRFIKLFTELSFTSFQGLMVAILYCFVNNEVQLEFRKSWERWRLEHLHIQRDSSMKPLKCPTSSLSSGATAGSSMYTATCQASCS
Protocol: COS-7 cells were transiently transfected with cDNA encoding the wild-type human GLP-1 receptor. Peptide induced cAMP production was measured by radioimmunoassay.

With `CC(C)C[C@H](NC(=O)[C@H](Cc1ccc(O)cc1)NC(=O)[C@H](CO)NC(=O)[C@H](CO)NC(=O)[C@@H](NC(=O)[C@H](CC(=O)O)NC(=O)[C@H](CO)NC(=O)[C@@H](NC(=O)[C@H](Cc1ccccc1)NC(=O)[C@@H](NC(=O)CNC(=O)[C@H](CCC(=O)O)NC(=O)[C@H](C)NC(=O)[C@@H](N)Cc1c[nH]cn1)[C@@H](C)O)[C@@H](C)O)C(C)C)C(N)=O` [GLP-1 (7-20) amide] (H-HAEGTFTSDVSSYL-NH2; N-terminus assumed), the EC50 – broadly, the concentration that produces a half-maximal response – in assay [1] was 24 µM. The “potency increase compared to the function of this peptide at the wild type receptor” value in assay [1] (hyperactive versus wild type receptor) was found to be 10 fold. Moreover, in assay [2], the blood glucose levels entry is on record as “pronounced reduction” and the “islet cell mass in pancreases” value was “increased”. Further, in assay [3] (statement referring to Example 1), the “affinity for the GLP-1 receptor compared with full length GLP-1” value was “lower affinity than full length GLP-1”.
Compound `CC(C)C[C@H](NC(=O)[C@H](Cc1ccc(O)cc1)NC(=O)[C@H](CO)NC(=O)[C@H](CO)NC(=O)[C@@H](NC(=O)[C@H](CC(=O)O)NC(=O)[C@H](CO)NC(=O)[C@@H](NC(=O)[C@H](Cc1ccccc1)NC(=O)[C@@H](NC(=O)CNC(=O)[C@H](CCC(=O)O)NC(=O)[C@H](C)NC(=O)[C@@H](N)Cc1c[nH]cn1)[C@@H](C)O)[C@@H](C)O)C(C)C)C(=O)N[C@@H](Cc1ccc(-c2ccccc2)cc1)C(N)=O` [GLP-1 (7-20)+bpa] (H-HAEGTFTSDVSSYL[Bip]-NH2; N-terminus and C-terminus assumed) had an EC50 in assay [1] of 2 µM. Further, the “higher potency than GLP-1 (7-20) amide -bpa at the hyperactive receptor” value in assay [1] (hyperactive receptor, +bpa versus -bpa) was found to be 10 fold. In assay [2], the blood glucose levels result was “pronounced reduction” and the “islet cell mass in pancreases” value is given as “increased”. Also, the “potency increase by carboxy-terminal tethering of biphenylalanine” value in assay [3] (versus underivatized GLP-1 (7-20) amide, wild-type receptor) is on record as 22 fold.
